# Several values for one entry are separate records, joined by “and”; a condition that tells them apart may be missing. Identical values can stand only once. Like-named read-outs stand apart in the source and are kept apart here.
# How the values were obtained:
# serum uric acid (SUA) = conditions: cited from earlier work
# [1] = cited from earlier work; for patients with gout flares requiring treatment in a month: colchicine prophylaxis
# [2] = cited from earlier work; for subjects requiring treatment for at least one gout flare: first 8 weeks, with gout flare prophylaxis
# ADAs = conditions: all KRYSTEXXA-treated subjects; cited from earlier work
# uric acid [3] = conditions: cited from earlier work; for mean uric acid levels at four weeks: monthly dosing
# [4] = cited from earlier work; for flares per patient over the first 3 months: Phase 3; for Flares per patient month: Phase 3 trials
# uricase specific ADAs [5] = test: Phase 1a clinical trial: uricase specific ADAs; assay type: in vivo, human; conditions: single infusion; varying levels
# Description: (§1) The Phase 1a clinical trial for SEL 212 was an ascending dose trial of pegsiticase alone in 22 subjects with elevated serum uric acid levels greater than 6 mg/dl who were separated into five cohorts. Each cohort received a single intravenous infusion of pegsiticase at the following dose levels of 0.1 mg/kg for Cohort #1, 0.2 mg/kg for Cohort #2, 0.4 mg/kg for Cohort #3, 0.8 mg/kg for Cohort #4 and 1.2 mg/kg for Cohort #5. Dosing began with the lowest dose and only after an entire cohort was safely dosed was the next cohort started. The subjects were monitored during a 30 day period post infusion with visits occurring on day 7, 14,21 and the end of trial visit on day 30. Blood and serum of each patient was evaluated for serum uric acid, ADAs (specifically anti-peg, anti-uricase and anti-pegsiticase) and safety parameters.
# The serum uric acid levels were measured at baseline and days seven, 14, 21 and 30 and uricase specific ADA levels at baseline and days seven, 14 and 30 following a single intravenous injection of pegsiticase. Uricase specific ADA levels at day 21 in the Phase 1a clinical trial were not measured. […]
# uricase specific ADAs [6] = test: Phase 1b clinical trial: uricase specific ADAs; assay type: in vivo, human; conditions: pegsiticase alone 0.4 mg/kg, Cohort #3 Phase 1a and Cohort #9 Phase 1b; resulting in return to baseline serum uric acid
# Description: (§2) The Phase 1b clinical trial enrolled 63 patients with serum uric acid levels greater than 6 mg/dl separated into 11 cohorts. A single intravenous infusion of SVP Rapamycin alone at the following ascending dose levels was administered to four cohorts in ascending order. Each cohort consisted of seven patients and were designated as follows: Cohort #1 (0.03 mg/kg), Cohort #3 (0.1 mg/kg), Cohort #5 (0.3 mg/kg) and Cohort #7 (0.5 mg/kg) collectively the SVP Rapamycin Cohorts. After a cohort of the SVP-Rapamycin alone had successfully and safely been dosed the corresponding dose level of SVP Rapamycin was combined with a fixed dose of pegsiticase (0.4 mg/kg). The combination was co-administered sequentially as a single intravenous infusion, with the SVP Rapamycin infusion preceding the pegsiticase infusion. […] The subjects were monitored during a 30 day period post infusion with visits occurring on day 7, 14,21 and the end of trial visit on day 30. Blood and serum of each patient was evaluated for serum uric acid, ADAs (specifically anti-PEG, anti-uricase and anti-pegsiticase) and safety parameters. […]
# In the Phase 1a clinical trial, uricase specific ADA levels at day 21 was not measured. […] As a result, for the Phase 1b clinical trial, uricase specific ADA levels at day 21 were monitored.
# [7] = Phase 1a and Phase 1b clinical trials: safety and tolerability; assay type: in vivo, human; conditions: 85 subjects dosed in Phase 1a and Phase 1b
# Description: as §1
# The Phase 1b clinical trial enrolled 63 patients with serum uric acid levels greater than 6 mg/dl separated into 11 cohorts. A single intravenous infusion of SVP Rapamycin alone at the following ascending dose levels was administered to four cohorts in ascending order. […] The subjects were monitored during a 30 day period post infusion with visits occurring on day 7, 14,21 and the end of trial visit on day 30. Blood and serum of each patient was evaluated for serum uric acid, ADAs (specifically anti-PEG, anti-uricase and anti-pegsiticase) and safety parameters. […]
# [8] = Gout flare in first month, pegsiticase alone (Phase 1, Table 1); assay type: in vivo, human
# Description: as §1
# When pegsiticase was administered alone in the Phase 1 described in Example 2, 57% (4 out of 7 patients) of those with a history of gout had signs of gout flare in the first month after receiving the study drug (Table 1). […] This subject was in the cohort that received only the rapamycin-comprising nanocarrier (without uricase). […] The flare was, therefore, unrelated to a change in serum uric acid. […] This patient's serum uric acid level dropped from 8.8 mg/dL to 0.1 mg/dL within 90 minutes following drug administration. So, although this subject had only been diagnosed with asymptomatic hyperuricemia before the study, a flare did seem to coincide with a drop in serum uric acid.
# serum uric acid [9] = test: Phase 1b clinical trial: serum uric acid; assay type: in vivo, human
# Description: as §2
# serum uric acid [10] = test: Phase 1a clinical trial: serum uric acid; assay type: in vivo, human
# Description: as §1
# FIG. 4 depicts average serum uric acid levels of the Phase 1a clinical trial's five cohorts tested at different measurement intervals (Day 7, 14, 21 and 30) during the course of the 30 day period following the single intravenous infusion of pegsiticase at the outset of the trial.
# The serum uric acid levels were measured at baseline and days seven, 14, 21 and 30 and uricase specific ADA levels at baseline and days seven, 14 and 30 following a single intravenous injection of pegsiticase. Uricase specific ADA levels at day 21 in the Phase 1a clinical trial were not measured. Based on the results from the Phase 1a clinical trial, it was observed that pegsiticase at a tolerated dose is capable of achieving and maintaining a reduction of serum uric acid below the target of 6 mg/dl for a 30 day period in the absence of inhibitory uricase specific ADAs.
# [11] = Phase 1a clinical trial: safety; assay type: in vivo, human; conditions: single intravenous infusion, five dose levels 0.1-1.2 mg/kg
# Description: as §1
# uric acid [12] = test: Uric acid levels in uricase deficient mice; assay type: in vivo
# Description: (§3) A pharmacology study in mice that were genetically deficient in endogenous uricase was conducted. The study evaluated the efficacy of a dose regimen consisting of three immunizations with SEL 212 followed by doses of pegsiticase alone in preventing the formation of ADAs to pegsiticase. The treatment period consisted of the first 14 days of the study. In the study, mice were separated into three treatment groups. During the treatment period: • the first group, referred to as the Untreated Group, received no treatment; • the second group, referred to as the Pegsiticase Group, was treated with pegsiticase alone; and • the third group, referred to as the SVP Rapamycin+Pegsiticase Group, was treated with SVP Rapamycin co administered with pegsiticase.
# (§4) The Pegsiticase Group and SVP Rapamycin+Pegsiticase Group were treated on days zero, seven and 14 of the treatment period. Each group was then treated with pegsiticase alone on days 35 and 42 of the study, or the challenge period. Uricase specific ADA levels were recorded to determine the formation of ADAs to pegsiticase. Uric acid levels were measured to determine effectiveness of SVP Rapamycin co administered with pegsiticase in lowering uric acid levels below 6 mg/dl, which is the treatment target for gout patients.
# uricase specific ADAs [13] = test: Uricase specific ADA formation in uricase deficient mice; assay type: in vivo; conditions: treated days 0, 7 and 14, pegsiticase alone challenge days 35 and 42
# Description: as §3, §4
molecule,measurement,setting,value
"O=C(O)CSc1nnc(Br)n1-c1ccc(C2CC2)c2ccccc12 [Lesinurad, lesinurad]",Time of efficacy (area under curve of mean sUA levels over time),serum uric acid (SUA); Lesinurad 200 mg/day,158.5
same,Time of efficacy (area under curve of mean sUA levels over time),serum uric acid (SUA); Lesinurad 400 mg/day,165.8
same,Time of efficacy (area under curve of mean sUA levels over time),serum uric acid (SUA); Lesinurad 600 mg/day,167.5
same,patients with gout flares requiring treatment in a month,[1]; 200 mg daily,10 out of 46
same,Flares per patient month,[1]; 200 mg/day,0.22 flares per patient month
same,patients with gout flares requiring treatment in a month,[1]; 400 mg daily,13 out of 42
same,Flares per patient month,[1]; 400 mg/day,0.31 flares per patient month
same,patients with gout flares requiring treatment in a month,[1]; 600 mg daily,15 out of 48
same,Flares per patient month,[1]; 600 mg/day,0.31 flares per patient month
"Cc1nc(-c2ccc(OCC(C)C)c(C#N)c2)sc1C(=O)O [Febuxostat, febuxostat]",Flares per patient month,[2]; 80 mg/day,0.77 flares per patient month
same,subjects requiring treatment for at least one gout flare,[2]; 80 mg/day,55 out of 255
same,Flares per patient month,"[2]; 80 mg/day, listed as febuxostat",at least 0.22 flares per patient month
same,Flares per patient month,[2]; 120 mg/day,0.36 flares per patient month
same,subjects requiring treatment for at least one gout flare,[2]; 120 mg/day,90 out of 250
same,Flares per patient month,"[2]; 120 mg/day, listed as febuxostat",≥ 0.36 flares per patient month
Pegloticase,Time of efficacy (area under curve of mean sUA levels over time),"serum uric acid (SUA); Pegloticase biweekly, Nonresponders",Nonresponders-84.35
same,Time of efficacy (area under curve of mean sUA levels over time),"serum uric acid (SUA); Pegloticase biweekly, Responders",Responders-26.6
same,Time of efficacy (area under curve of mean sUA levels over time),"serum uric acid (SUA); Pegloticase monthly, Nonresponders",Nonresponders-99.75
same,Time of efficacy (area under curve of mean sUA levels over time),"serum uric acid (SUA); Pegloticase monthly, Responders",Responders-53.55
same,treated subjects that developed ADAs,ADAs,89%
same,"non-responders, share of subjects",uric acid [3]; monthly dosing cohorts,65%
same,subjects classified as responders (uric acid below 6 mg/dl for 80% of the time at months three and six),uric acid [3]; monthly dosing cohorts,35%
same,mean uric acid levels at four weeks,uric acid [3]; non-responders,above 6 mg/dl
same,mean uric acid levels at four weeks,uric acid [3]; responders,above 4 mg/dl
same,flares per patient over the first 3 months,"[4]; biweekly pegloticase, 85 patients",2.3
same,flares per patient over the first 3 months,"[4]; monthly pegloticase, 84 patients",2.7
same,Flares per patient month,[4]; pegloticase biweekly,0.77 flares per patient month
same,Flares per patient month,[4]; pegloticase monthly,0.90 flares per patient month
same,Flares per patient month,"[4]; pegloticase monthly, listed as pegloticase",0.9 flares per patient month
same,study subjects reporting one or more flares,"[4]; phase 2 trial, three-month study",88%
same,patients with gout flares in the first 3 months,"[4]; two phase 3 trials, despite gout flare prophylaxis (colchicine or NSAIDs)",about 80%
Recombinant Pegylated Candida Urate Oxidase [pegsiticase],uricase specific ADAs,uricase specific ADAs [5],induced uricase specific ADAs in all subjects
same,uricase specific ADA formation,uricase specific ADAs [6],uricase specific ADA formation at day 14
same,tolerability,[7],well tolerated
same,Flare in 1st month,"[8]; individual subject with history of gout, SEL-037 0.8 mg/kg",no
same,Flare in 1st month,"[8]; individual subjects with history of gout, SEL-037 0.1 mg/kg, 0.1 mg/kg",no and yes (2×) and yes (positive for
same,Flare in 1st month,"[8]; individual subjects with history of gout, SEL-037 0.2 mg/kg, 0.2 mg/kg","no and yes (mild gout, right"
same,subjects with a history of gout with signs of gout flare in the first month,"[8]; pegsiticase alone, Phase 1, 4 out of 7 patients",57%
same,subjects returned to baseline serum uric acid levels by day 30,serum uric acid [9]; Cohort #9: pegsiticase alone 0.4 mg/kg,four of the five
same,serum uric acid levels,"serum uric acid [9]; pegsiticase alone 0.4 mg/kg, Cohort #3 Phase 1a and Cohort #9 Phase 1b, initial control, enzyme activity lost past day 14",below 6 mg/dL
same,time average serum uric acid levels sustained below 6 mg/dl,"serum uric acid [10]; each cohort, depending on the dose level",14 to 30 days
same,time within which serum uric acid levels dropped significantly,"serum uric acid [10]; single intravenous infusion, all 22 subjects",approximately 10 hours
same,time after dosing by which serum uric acid levels rebounded,"serum uric acid [10]; single intravenous infusion, majority of patients",14 to 21 days
same,serious adverse events,[11],no serious adverse events
same,tolerability,[11],well tolerated
same,uric acid levels,uric acid [12]; after the first dose in the treatment period,below 6 mg/dl
same,uric acid levels,uric acid [12]; subsequent doses in the treatment period and challenge period,> 6 mg/dL
same,uricase specific ADA formation,uricase specific ADAs [13],developed uricase specific ADAs
